For 51 compounds, IC50 results are on record in patent US20170280720A1, “ARGININE […] INHIBITORS AND USES THEREOF” (EPIZYME, INC., priority 2014, published 2017).

pIC50: −log10 of the molar value. Structures can show the parent of a compound that is named as a salt.

The target in this test is T1, human PRMT1 (Homo sapiens, UniProt Q99873).
T1 construct: GST-tagged PRMT1; made in house; host or cells: High Five insect cells (baculovirus, pFastBacI)
Nature of the test: PRMT1 biochemical assay (3H-SAM Flashplate, peptide substrate). The following applies: read-out: PRMT1_ IC50. The gist of the method:
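FLAG-tagged full-length human PRMT1 (0.5 nM, GST-tagged, insect-cell expressed) preincubated 30 min at RT with compound, then biotinylated histone H4 36-50 peptide (20 nM) plus 200 nM 3H-SAM and 1.5 uM SAM in Bicine pH 7.6, 2% DMSO. 3H-methylated peptide captured on streptavidin Flashplate; IC50 from 3/4-parameter fit.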

T1 sequence (Q99873 with tags, fused parts or gaps): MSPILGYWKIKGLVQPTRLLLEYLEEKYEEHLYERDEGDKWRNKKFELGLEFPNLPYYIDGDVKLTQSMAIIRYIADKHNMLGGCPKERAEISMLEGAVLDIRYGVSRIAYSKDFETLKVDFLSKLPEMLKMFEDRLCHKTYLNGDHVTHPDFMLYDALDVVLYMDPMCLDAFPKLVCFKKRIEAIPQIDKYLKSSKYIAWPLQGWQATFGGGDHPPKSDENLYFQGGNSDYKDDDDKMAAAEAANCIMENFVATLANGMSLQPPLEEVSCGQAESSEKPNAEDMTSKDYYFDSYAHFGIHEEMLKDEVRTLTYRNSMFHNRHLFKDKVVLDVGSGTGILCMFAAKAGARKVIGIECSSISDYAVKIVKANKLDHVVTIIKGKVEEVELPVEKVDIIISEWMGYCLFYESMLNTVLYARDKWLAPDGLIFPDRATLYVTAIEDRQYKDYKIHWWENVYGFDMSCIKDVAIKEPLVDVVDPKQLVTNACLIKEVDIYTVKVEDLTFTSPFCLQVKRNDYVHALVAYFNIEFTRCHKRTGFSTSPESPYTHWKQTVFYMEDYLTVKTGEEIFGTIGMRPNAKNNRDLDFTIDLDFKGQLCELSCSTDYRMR

The pIC50 is the IC50 on a negative log10 scale, so that one unit is a factor of ten. Regarding `CNCCN(C)Cc1cccc(-c2ccc3ncn(C)c3c2)c1` [Compound 92], the pIC50 is 6.36.

For `COc1ccccc1-c1nc2ccc(-c3ccc(CNCCN)cc3)cc2[nH]1` [Compound 115], the pIC50 was 6.20.

On to `CNCCN(C)Cc1cccc(-c2cc(C(=O)NCCC(=O)NCc3ccn(C)n3)c3cnn(C(C)C)c3n2)c1` [Compound 83], for which the pIC50 was 6.42.

As for `CC(C)n1ncc2c(NC3CCOCC3)cc(-c3cccc(CN(C)CCN)c3)nc21` [Compound 101], the pIC50 was 6.31.

`CCNc1cc(-c2cccc(CN(C)CCNC)c2)nc2c1cnn2C(C)C` [Compound 72]: the pIC50 is 6.52.

As for `CNCCN(C)Cc1cccc(-c2nc(NCc3ccccn3)c3cnn(C4CC4)c3n2)c1` [Compound 9], the pIC50 is 7.33.

Turning to `Cc1c(CNc2nc(-c3cccc(CN(C)CCN)c3)nc3c2cnn3C2CC2)cnn1C` [Compound 52], the pIC50 was 6.65.

For `CN(CCN)Cc1cccc(-c2nc(N(C)C3CCOCC3)c3cnn(C4CC4)c3n2)c1` [Compound 119], the pIC50 is 6.15.

As to `CNCCN(C)Cc1cccc(-c2cc(C(=O)NCC3CCOCC3)c3cnn(C(C)C)c3n2)c1` [Compound 105], the negative logarithm of the IC50 (pIC50) is 6.26.

Take `CCOC(=O)c1cc(-c2cccc(CN(C)CCNC)c2)nc2c1cnn2C(C)C` [Compound 78]: the pIC50 is 6.47.

In the case of `CNCCN(C)Cc1cccc(-c2cc(C(=O)NCCCC(=O)NCc3ccn(C)n3)c3cnn(C(C)C)c3n2)c1` [Compound 88], the pIC50 was 6.38.

Turning to `CNCCN(C)Cc1cccc(-c2cnc3c(c2)c(C2CC2)nn3CC2CCOCC2)c1` [Compound 4], the pIC50 was 7.46.

Consider `CCOc1cc(-c2cccc(CN(C)CCNC)c2)nc2c1cnn2C(C)C` [Compound 53], for which the pIC50 is 6.64.

Consider `CNCCN(C)Cc1cccc(-c2nc(N3CCOCC3)c3cnn(C(C)C)c3n2)c1` [Compound 99], for which the pIC50 is 6.34.

Take `CC(C)n1ncc2c(C(=O)N[C@@H](C)c3ccccc3)cc(-c3cccc(CNCCN)c3)cc21` [Compound 125]: the pIC50 is 6.11.

Take `CCS(=O)(=O)Nc1cc(-c2cccc(CN(C)CCN)c2)nc2c1cnn2C(C)C` [Compound 111]: the pIC50 was 6.23.

Consider `CC(C)n1ncc2c(NC(=O)OCc3ccccc3)cc(-c3cccc(CN(C)CCN)c3)nc21` [Compound 84], for which the pIC50 is 6.41.

On to `CNCCN(C)Cc1cccc(-c2cc(C(=O)N3CCCCC3)c3cnn(C(C)C)c3n2)c1` [Compound 56], for which the pIC50 was 6.62.

Turning to `CNCCN(C)Cc1cccc(-c2cc(NC(=O)N(C)C)c3cnn(C(C)C)c3n2)c1` [Compound 123], the pIC50 was 6.12.

Consider `CNCCN(C)Cc1cccc(-c2cc(C(=O)NCCCCC(=O)NCc3ccn(C)n3)c3cnn(C(C)C)c3n2)c1` [Compound 122], for which the pIC50 is 6.14.

Take `CNCCN(C)Cc1cccc(-c2cc(N(C)C)c3cnn(C(C)C)c3n2)c1` [Compound 103]: the pIC50 is 6.29.

Consider `CNCCN(C)Cc1cccc(-c2cc(N3CCOCC3)n3ncc(C(C)C)c3n2)c1` [Compound 62, N1-(3-(3-isopropyl-7-morpholinopyrazolo[1,5-a]pyrimidin-5-yl)benzyl)-N1,N2-dimethylethane-1,2-diamine formate], for which the pIC50 was 6.59.

Regarding `CNCCN(C)Cc1cccc(-c2cc(N(C)C3CC3)c3cnn(C(C)C)c3n2)c1` [Compound 95], the pIC50 is 6.35.

`CNCCN(C)Cc1cccc(-c2cc(N3CCC3)c3cnn(C(C)C)c3n2)c1` [Compound 79]: the pIC50 is 6.47.

With `Cc1ccccc1Cn1cnc2ccc(-c3ccc(CNCCN)cc3)cc21` [Compound 82], the pIC50 is 6.43.

In the case of `CNCCN(C)Cc1cccc(-c2cc(-c3ccoc3)c3cnn(C(C)C)c3n2)c1` [Compound 67], the pIC50 was 6.56.

`CNCCN(C)Cc1cccc(-c2cc(-c3cnn(C)c3)c3cnn(C(C)C)c3n2)c1` [Compound 49, N1-(3-(1-isopropyl-4-(1-methyl-1H-pyrazol-4-yl)-1H-pyrazolo[3,4-b]pyridin-6-yl)benzyl)-N1,N2-dimethylethane-1,2-diamine]: the pIC50 was 6.67.

With `CNCCN(C)Cc1cccc(-c2nc(N(C)C3CCOCC3)c3cnn(C4CC4)c3n2)c1` [Compound 109, N1-(3-(1-cyclopropyl-4-(methyl(tetrahydro-2H-pyran-4-yl)amino)-1H-pyrazolo[3,4-d]pyrimidin-6-yl)benzyl)-N1,N2-dimethylethane-1,2-diamine], the pIC50 is 6.24.

For the compound `CNCCN(C)Cc1cccc(-c2cc(C(=O)NCCCCCC(=O)NCC3CCOCC3)c3cnn(C(C)C)c3n2)c1` [Compound 112], the negative-log IC50 (pIC50) was 6.23.

As to `CNCCN(C)Cc1cccc(-c2cc(N3CCOCC3)c3cnn(C(C)C)c3n2)c1` [Compound 68], the pIC50 is 6.56.

On to `CN(CCN)Cc1cccc(-c2nc(NCc3ccncc3)c3cnn(C4CC4)c3n2)c1` [Compound 66], for which the pIC50 was 6.56.

With `CNCCN(C)Cc1cccc(-c2cc(C(=O)NCc3ccccn3)c3cnn(C(C)C)c3n2)c1` [Compound 98], the pIC50 was 6.34.

Turning to `CN(CCN)Cc1cccc(-c2nc(NCc3cn4ccsc4n3)c3cnn(C4CC4)c3n2)c1` [Compound 5], the negative-log IC50 (pIC50) was 7.43.

Consider `CNCCN(C)Cc1cccc(-c2cc(C(=O)NC3CCOCC3)c3cnn(C4CC4)c3n2)c1` [Compound 87], for which the pIC50 was 6.38.

Turning to `CNCCN(C)Cc1cccc(-c2nc(NCc3cccnc3)c3cnn(C4CC4)c3n2)c1` [Compound 63], the pIC50 is 6.58.

On to `CNCCN(C)Cc1cccc(-c2cc(NC)c3cnn(C(C)C)c3n2)c1` [Compound 121], for which the pIC50 was 6.14.

As for `CC(C)n1ncc2c(C(=O)N(C)[C@@H](C)c3ccccc3)cc(-c3cccc(CN(C)CCN)c3)cc21` [Compound 3], the pIC50 is 7.57.

In the case of `CNCCN(C)Cc1cccc(-c2cc(C(=O)NCCCC(=O)NCC3CCOCC3)c3cnn(C(C)C)c3n2)c1` [Compound 60], the negative logarithm of the IC50 (pIC50) was 6.61.

On to `NCCNCc1ccc(-c2ccc3ncn(CC4CCNCC4)c3c2)cc1` [Compound 70], for which the pIC50 was 6.53.

As for `NCCNCc1ccc(-c2ccc3ncn(Cc4ccc(C(=O)N5CCCC5)cc4)c3c2)cc1` [Compound 104], the negative logarithm of the IC50 (pIC50) is 6.28.

On to `CC(C)n1ncc2c(C(=O)NCc3ccccc3F)cc(-c3cccc(CN(C)CCN)c3)nc21` [Compound 65], for which the pIC50 was 6.57.

As to `CNCCN(C)Cc1cccc(-c2ccc3cnn(C(C)C)c3n2)c1` [Compound 73], the pIC50 is 6.51.

For `CN(CCN)Cc1cccc(-c2nc(NC3CC3)c3cnn(C4CC4)c3n2)c1` [Compound 96], the pIC50 was 6.35.

As to `COc1cccc(Cn2cnc3ccc(-c4ccc(CN(C)CCN)cc4)cc32)c1` [Compound 8], the pIC50 is 7.33.

On to `Cc1cccc(-n2cnc3ccc(-c4ccc(CNCCN)cc4)cc32)c1` [Compound 106], for which the pIC50 is 6.25.

As to `CC(C)n1ncc2c(C(=O)NCc3ccccc3Cl)cc(-c3cccc(CN(C)CCN)c3)nc21` [Compound 54], the pIC50 is 6.64.

As for `CNCCN(C)Cc1cccc(-c2ccc3cnn(C(C)C)c3c2)c1` [Compound 100], the pIC50 was 6.32.

As for `CNCCN(C)Cc1cccc(-c2nc(NCc3cnn(C)c3C)c3cnn(C4CC4)c3n2)c1` [Compound 57], the pIC50 was 6.62.

With `NCCNCc1ccc(-c2ccc3ncn(CC4CCCNC4)c3c2)cc1` (stereo not drawn) [Compound 81], the pIC50 was 6.44.

In the case of `CNCCN(C)Cc1cccc(-c2cc(N3CCC(OC)CC3)c3cnn(C(C)C)c3n2)c1` [Compound 51], the pIC50 was 6.65.

Consider `CC(C)NC(=O)Nc1cc(-c2cccc(CN(C)CCN)c2)nc2c1cnn2C(C)C` [Compound 86], for which the pIC50 is 6.40.
